This is an account of results in patent publication US20050070558A1, “6-Phenyldihydropyrrolopyrimidinedione derivatives” (priority 2001, published 2005).

Some results are limits rather than exact numbers.

One series deals with T1, hA2b receptors (Homo sapiens, UniProt P29275).
T1 construct: purchased Receptor Biology, Inc. (USA); host or cells: HEK293
T1 sequence (P29275 1-332): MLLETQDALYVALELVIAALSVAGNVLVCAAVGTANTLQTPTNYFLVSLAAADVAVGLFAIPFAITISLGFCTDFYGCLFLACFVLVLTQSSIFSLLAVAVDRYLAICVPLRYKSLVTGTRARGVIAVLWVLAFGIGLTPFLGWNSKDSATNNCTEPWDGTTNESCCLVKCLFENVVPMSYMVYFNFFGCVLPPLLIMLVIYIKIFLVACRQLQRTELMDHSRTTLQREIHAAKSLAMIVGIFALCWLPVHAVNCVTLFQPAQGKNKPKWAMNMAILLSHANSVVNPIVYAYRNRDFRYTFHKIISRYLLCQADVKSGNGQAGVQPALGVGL
In words: Adenosine 2b receptor subtype competition radioligand binding ([3H]DPCPX). The note with it: membranes from hA2b receptors transfected to HEK293 cells, 30 min at 25° C., read-out: IC50 A2b. How it is done: Adenosine 2b Receptor Subtype Competition Radioligand Binding
Human membranes from recombinant A2b receptors were purchased from Receptor Biology, Inc. (USA).
Competition assays were carried out by incubation of membranes from hA2b receptors transfected to HEK293 cells, [^3H]DPCPX as radioligand, buffer (50 mM Tris-HCl (pH 6.5), 10 mM MgCl2, 1 mM EDTA, 0.1 mM benzamidine, 2 units/ml adenosine deaminase), and unlabelled ligand in a total volume of 0.1 ml for 30 min at 25° C. NECA was used to determinate non-specific binding. Filter over Schleicher&Schuell GF/52 filters (pre-soaked 0.5% polyethylenyimine) in a Brandel cell harvester. Unbound radioligand was removed with 4×2 ml ice-cold 50 mM Tris-Hcl 50 mM (pH 6.5).

The next series deals with T2, hA2a receptors (Homo sapiens, UniProt P29274).
T2 construct: purchased Receptor Biology, Inc. (USA); host or cells: HEK293
In words: Adenosine 2a receptor subtype competition radioligand binding ([3H]ZM241385). Conditions: membranes from hA2a receptors transfected to HEK293 cells, [3H]ZM241385, 90 min at 25° C.; read-out: IC50 A2a. As to the method: Adenosine 2a Receptor Subtype Competition Radioligand Binding
Human membranes from recombinant A2a receptors were purchased from Receptor Biology, Inc. (USA).
Competition assays were carried out by incubation of membranes from hA2a receptors transfected to HEK293 cells, [^3H]ZM241385 as radioligand, buffer (50 mM Tris-HCl (pH 7.4), 10 mM MgCl2, 1 mM EDTA, 2 units/ml adenosine deaminase), and unlabelled ligand in a total volume of 0.2 ml for 90 min at 25° C. NECA was used to determinate non-specific binding. Filter over Schleicher&Schuell GF/52 filters (pre-soaked 0.5% polyethylenyimine) in a Brandel cell harvester. Unbound radioligand was removed with 3×3 ml ice-cold 50 mM Tris-Hcl 50 mM (pH 7.4), 0.9% NaCl.

T2 sequence (P29274 whole entry): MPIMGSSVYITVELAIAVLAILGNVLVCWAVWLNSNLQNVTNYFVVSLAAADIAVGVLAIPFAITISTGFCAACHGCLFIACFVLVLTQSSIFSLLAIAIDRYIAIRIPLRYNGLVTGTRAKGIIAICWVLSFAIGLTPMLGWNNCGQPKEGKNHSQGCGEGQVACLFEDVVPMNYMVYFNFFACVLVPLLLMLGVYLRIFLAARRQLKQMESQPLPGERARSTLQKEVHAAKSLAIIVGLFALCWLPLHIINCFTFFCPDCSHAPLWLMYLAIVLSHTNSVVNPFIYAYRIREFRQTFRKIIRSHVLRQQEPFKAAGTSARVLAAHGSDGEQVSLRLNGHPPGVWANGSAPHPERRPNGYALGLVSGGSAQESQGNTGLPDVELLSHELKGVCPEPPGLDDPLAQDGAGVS

As to `Cc1ccc(NC(=O)OCc2ccc(-c3cc4c([nH]3)c(=O)n(C)c(=O)n4C)cc2)nc1` [Example 269, (5-Methylpyridin-2-yl)-carbamic acid 4-(1,3-dimethyl-2,4-dioxo-2,3,4,5-tetrahydro-1H-pyrrolo[3,2-d]pyrimidin-6-yl)benzyl ester], the melting point (usually the temperature of the solid-liquid transition) was 293 °C.

Turning to `CCCn1c(=O)c2[nH]c(-c3ccc(OCC(=O)N4CCC(c5ccccc5)(c5ccccc5)CC4)cc3)cc2n(C)c1=O` [Example 100, 6-{4-[2-(4,4-Diphenylpiperidin-1-yl)-2-oxo-ethoxy]phenyl}-1-methyl-3-propyl-1,5-dihydropyrrolo[3,2-d]pyrimidine-2,4 dione], the 50% inhibitory concentration (IC50) (commonly the point on the concentration scale where inhibition reaches its midpoint) at hA2b receptors was found to be 0.01 µM.

`Cn1c(=O)c2[nH]c(-c3ccc(COC(=O)Nc4cccs4)cc3)cc2n(C)c1=O` [Example 270, Thiophen-2-yl-carbamic acid 4-(1,3-dimethyl-2,4-dioxo-2,3,4,5-tetrahydro-1H-pyrrolo[3,2-d]pyrimidin-6-yl)-benzyl ester] yielded a melting point of 287 °C.

Take `Cn1c(=O)c2[nH]c(-c3ccc(OCC(=O)N4CCN(c5cccc(C(F)(F)F)c5)CC4)cc3)cc2n(C)c1=O` [Example 74, 1,3-Dimethyl-6-(4-{2-oxo-2-[4-(3-trifluoromethylphenyl)piperazin-1-yl]ethoxy}phenyl)-1,5-dihydropyrrolo[3,2-d]pyrimidine-2,4-dione]: the melting point is > 275 °C (dec.).

In the case of `Cn1c(=O)c2[nH]c(-c3ccc(OCC(=O)Nc4nncs4)cc3)cc2n(C)c1=O` [Example 67, 2-[4-(1,3-Dimethyl-2,4-dioxo-2,3,4,5-tetrahydro-1H-pyrrolo[3,2-d]pyrimidin-6-yl)phenoxy]-N-[1,3,4]thiadiazol-2-ylacetamide], the figures for the IC50 on hA2b receptors and on hA2a receptors were 0.024 µM and 0.026 µM, respectively.

In the case of `Cn1c(=O)c2[nH]c(-c3ccc(OCC(=O)N4CCN(c5ccccc5)CC4)cc3)cc2n(C)c1=O` [Example 68, 1,3-Dimethyl-6-{4-[2-oxo-2-(4-phenylpiperazin-1-yl)ethoxy]phenyl}-1,5-dihydropyrrolo[3,2-d]pyrimidine-2,4-dione], the IC50 on hA2b receptors was found to be 0.008 µM.

On to `CCCn1c(=O)c2[nH]c(-c3ccc(COC(=O)Nc4cc(OC)nc(OC)n4)cc3)cc2n(CCC)c1=O` [Example 259, (2,6-Dimethoxy-pyrimidin-4-yl)-carbamic Acid 4-(2,4-dioxo-1,3-dipropyl-2,3,4,5-tetrahydro-1H-pyrrolo[3,2-d]pyrimidin-6-yl)benzyl Ester], for which the melting point lay within 182 to 185 °C.

Turning to `CCCn1c(=O)c2[nH]c(-c3ccc(OCC(=O)N4CCN(c5ccccc5)CC4)cc3)cc2n(CCC)c1=O` [Example 2, 6-{4-[2-Oxo-2-(4-phenylpiperazin-1-yl)ethoxy]phenyl}-1,3-dipropyl-1,5-dihydropyrrolo[3,2-d]pyrimidine-2,4-dione], the IC50 on hA2b receptors came to 0.007 µM.

`CCCn1c(=O)c2[nH]c(-c3ccc(OCC(=O)N4CCc5ccccc5C4)cc3)cc2n(CCC)c1=O` [Example 4]: the IC50 at hA2b receptors came to 0.003 µM.

Regarding `Cn1c(=O)c2[nH]c(-c3ccc(COC(=O)Nc4ccco4)cc3)cc2n(C)c1=O` [Example 272, Furan-2-yl-carbamic acid 4-(1,3-dimethyl-2,4-dioxo-2,3,4,5-tetrahydro 1H-pyrrolo[3,2-d]pyrimidin-6-yl)-benzyl ester], the melting point was found to be 278 °C.

`Cn1c(=O)c2[nH]c(-c3ccc(COC(=O)Nc4ccccn4)cc3)cc2n(C)c1=O` [Example 268, Pyridin-2-yl-carbamic acid 4-(1,3-dimethyl-2,4-dioxo-2,3,4,5-tetrahydro-1H-pyrrolo[3,2-d]pyrimidin-6-yl)benzyl ester] had a melting point of 301 °C.

Regarding `CCCn1c(=O)c2[nH]c(-c3ccc(OCC(=O)Nc4ccc(F)cc4)cc3)c(Br)c2n(CCC)c1=O` [Example 138, 2-[4-(7-Bromo-2,4-dioxo-1,3-dipropyl-2,3,4,5-tetrahydro-1H-pyrrolo[3,2-d]pyrimidin-6-yl)phenoxy]-N-(4-fluorophenyl)acetamide], the IC50 at hA2a receptors is 0.038 µM.

`Cn1c(=O)c2[nH]c(-c3ccc(COC(=O)Nc4ccsc4)cc3)cc2n(C)c1=O` [Example 271, Thiophen-3-yl-carbamic acid 4-(1,3-dimethyl-2,4-dioxo-2,3,4,5-tetrahydro-1H-pyrrolo[3,2-d]pyrimidin-6-yl)-benzyl ester] displayed a melting point of 280 °C.

For the compound `COc1cc(-c2cc3c([nH]2)c(=O)n(C)c(=O)n3C)ccc1OCC(=O)Nc1ccc(F)cc1` [Example 160, 2-[4-(1,3-Dimethyl-2,4-dioxo-2,3,4,5-tetrahydro-1H-pyrrolo[3,2-d]pyrimidin-6-yl)-2-methoxyphenoxy]-N-(4-fluorophenyl)acetamide], the IC50 at hA2a receptors turned out to be 0.084 µM.

Regarding `CCCn1c(=O)c2[nH]c(-c3ccc(OCc4nc(-c5ccccc5)no4)cc3)cc2n(CCC)c1=O` [Example 210, 6-[4-(3-Phenyl[1,2,4]oxadiazol-5-ylmethoxy)phenyl]-1,3-dipropyl-1,5-dihydropyrrolo[3,2-d]pyrimidine-2,4-dione], the IC50 at hA2b receptors stood at 0.017 µM.

Take `CCCn1c(=O)c2[nH]c(-c3ccc(OCC(=O)Nc4ccc(F)cc4)cc3)cc2n(CCC)c1=O` [Example 3, 2-[4-(2,4-Dioxo-1,3-dipropyl-2,3,4,5-tetrahydro-1H-pyrrolo[3,2-d]pyrimidin-6-yl)phenoxy]-N-(4-fluorophenyl)acetamide]: the IC50 was found to be 0.005 µM at hA2b receptors and 0.022 µM on hA2a receptors.
